Read-outs that look alike come from different tables or passages of the source.
What was measured:
Assay type in all cases: in vivo
[1] = test system: Blumeria graminis f. sp. hordei; Synonym: Erysiphe graminis f. sp. hordei; assay: Barley powdery mildew (ERYSGH) disease control; conditions: 24 h, 1 Day Protectant, high volume, read-out: Disease Control ERYSGH 1 DP
Experimental: (§1) Technical grades of materials were dissolved in acetone, which were then mixed with nine volumes of water containing 110 ppm Triton X-100. The fungicide solutions were applied onto wheat seedlings using an automated booth sprayer to run-off. All sprayed plants were allowed to air dry prior to further handling. All fungicides were evaluated using the aforementioned method for their activity vs. all target diseases. Wheat leaf blotch and brown rust activity were also evaluated using track spray applications, in which case the fungicides were formulated as EC formulations, containing 0.1% Trycol 5941 in the spray solutions. Barley seedlings (variety Harrington) were propagated in soil-less Metro mix, with each pot having 8 to 12 plants, and used in the test when first leaf was fully emerged. Test plants were inoculated by dusting with infected stock plants 24 hr after fungicide treatments. After inoculation the plants were kept in a greenhouse set at 20° C. for disease to develop. Fungicide formulation, application and disease assessment on the sprayed leaves followed the procedures as described in the Example A.

Rhyncosporium secalis = assay: Barley scald (RHYNSE) disease control; conditions: 24 h, High volume application, 1 Day Protectant, read-out: RHYNSE 1 DP disease control
Experimental: as §1, with “inoculated by an aqueous spore suspension of Rhyncosporium secalis 24 hr” for “inoculated by dusting with infected stock plants 24 hr”, “kept in a dew room at 20° C. with 100% relative humidity for 48 hr. The plants were then transferred to a greenhouse” for “kept in a greenhouse”

Phakopsora pachyrhizi = assay: Asian soybean rust (PHAKPA) disease control; conditions: topical, high volume
Outline: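 Compounds in acetone diluted with nine volumes water containing 0.011% Tween 20, sprayed to run-off on two-week-old Williams 82 soybean seedlings, inoculated 3 days before or 1 day after treatment. Plants held 24 h in dark dew room at 22 °C, 100% RH, then at 23 °C; disease severity scored on sprayed leaves.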

Alternaria solani = assay: Tomato early blight (ALTESO) disease control; conditions: 24 h, 1 Day Protectant, high volume, read-out: Disease Control ALTESO 1 DP
Experimental: Technical grades of materials were dissolved in acetone, which were then mixed with nine volumes of water containing 110 ppm Triton X-100. The fungicide solutions were applied onto wheat seedlings using an automated booth sprayer to run-off. All sprayed plants were allowed to air dry prior to further handling. All fungicides were evaluated using the aforementioned method for their activity vs. all target diseases. Wheat leaf blotch and brown rust activity were also evaluated using track spray applications, in which case the fungicides were formulated as EC formulations, containing 0.1% Trycol 5941 in the spray solutions. Tomato plants (variety Outdoor girl) were propagated in soil-less Metro mix, with each pot having one plant, and used when 12 to 14 days old. Test plants were inoculated with an aqueous spore suspension of Alternaria solani 24 hr after fungicide treatments. After inoculation the plants were kept in 100% relative humidity (one day in a dark dew chamber followed by two to three days in a lighted dew chamber at 20° C.) to permit spores to germinate and infect the leaf. The plants were then transferred to a growth room at 22° C. for disease to develop. Fungicide formulation, application and disease assessment on the sprayed leaves followed the procedures as described in the Example A.

[2] = test system: Mycosphaerella graminicola; Anamorph: Septoria tritici; assay: Leaf blotch of wheat (SEPTTR) disease control on wheat seedlings; conditions: Zymoseptoria tritici, Wheat Leaf Blotch, low volume application, 121.5 g/H
Outline: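 Wheat seedlings (Yuma, first leaf emerged) sprayed to run-off with compound in acetone/water with 110 ppm Triton X-100, or track-sprayed as EC with 0.1% Trycol 5941. Septoria tritici spores inoculated before or after treatment. Dew chambers, then 20 °C greenhouse. Percent disease control derived from severity (0–100%) relative to untreated plants.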

[3] = test system: Puccinia triticina; Synonym: Puccinia recondite f. sp. tritici; assay: Wheat brown rust (PUCCRT) disease control on wheat seedlings; conditions: Puccinia triticina, Wheat Brown Rust, low volume application, 121.5 g/H
Outline: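 Acetone solutions diluted in nine volumes of water with 110 ppm Triton X-100 sprayed to run-off on first-leaf Yuma wheat seedlings (track spray: EC with 0.1% Trycol 5941). Puccinia triticina spores inoculated before or after treatment; overnight dark dew at 22° C., 100% RH, then greenhouse at 24° C. for disease development.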

[4] = 24 h, 1 Day Protectant, read-out: Disease Control PHAKPA 1DP
[5] = 72 h, 3 Day Curative, read-out: Disease Control PHAKPA 3DC
[6] = 24 h, 1 Day Protectant, read-out: Disease Control SEPTTR 1 DP 121.5 g/H
[7] = 72 h, 3 Day Curative, read-out: Disease Control SEPTTR 3 DC 121.5 g/H
[8] = 24 h, 1 Day Protectant, read-out: Disease Control PUCCRT 1 DP 121.5 g/H
[9] = 72 h, 3 Day Curative, read-out: Disease Control PUCCRT 3 DC 121.5 g/H

Row | SMILES | pest or weed control at 100 ppm [1] [%] | pest or weed control at 100 ppm (Rhyncosporium secalis) [%] | pest or weed control at 25 ppm (Phakopsora pachyrhizi; [4]) [%] | pest or weed control at 25 ppm (Phakopsora pachyrhizi; [5]) [%] | pest or weed control at 100 ppm (Alternaria solani) [%] | pest or weed control at 121.5 g/ha [2, 6] [%] | pest or weed control at 121.5 g/ha [2, 7] [%] | pest or weed control at 121.5 g/ha [3, 8] [%] | pest or weed control at 121.5 g/ha [3, 9] [%]
1 | COc1ccnc(C(=O)N[C@H]2CCC[C@H](OCC(C)C)[C@@H](OC)[C@H](C)OC2=O)c1OCOC(C)=O [F251] | < 0 | 0 to 80 | 80 to 100 | 0 to 80 | 0 to 80 | < 0 | < 0 | 80 to 100 | 80 to 100
2 | COc1ccnc(C(=O)N[C@H]2CCC[C@H](Oc3ccccc3)[C@@H](OC)[C@H](C)OC2=O)c1OCOC(C)=O [F252] | 0 to 80 | 80 to 100 | 80 to 100 | 0 to 80 | 0 to 80 | 0 to 80 | 0 to 80 | 80 to 100 | 80 to 100
3 | C=C(C)CO[C@H]1CCC[C@H](NC(=O)c2nccc(OC)c2OCOC(=O)C(C)C)C(=O)O[C@@H](C)[C@@H]1OC [F253] | 0 to 80 | 0 to 80 | 0 to 80 | < 0 | 0 to 80 | < 0 | < 0 | 80 to 100 | 80 to 100
4 | COc1ccnc(C(=O)N[C@H]2CCC[C@H](OCC(C)C)[C@@H](OC)[C@H](C)OC2=O)c1OCOC(=O)C(C)C [F254] | 0 to 80 | 80 to 100 | 80 to 100 | 0 to 80 | 0 to 80 | < 0 | < 0 | 80 to 100 | 80 to 100
5 | COc1ccnc(C(=O)N[C@H]2CCC[C@H](Oc3ccccc3)[C@@H](OC)[C@H](C)OC2=O)c1OCOC(=O)C(C)C [F255] | 0 to 80 | 80 to 100 | 80 to 100 | 0 to 80 | 0 to 80 | 0 to 80 | 0 to 80 | 80 to 100 | 80 to 100
